# Data taken from ChEMBL document CHEMBL1201862, “PubChem BioAssay data set” (2004).
# The source made the active and inactive calls.
# Columns and labels:
# [1] = target: T1, Ubiquitin-conjugating enzyme E2 N (Homo sapiens, UniProt P61088); format: functional;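 note: Dose-response confirmation in a TR-FRET assay detecting UBC13-driven polyubiquitin chain formation, inhibition measured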
# T1 sequence (P61088 whole entry): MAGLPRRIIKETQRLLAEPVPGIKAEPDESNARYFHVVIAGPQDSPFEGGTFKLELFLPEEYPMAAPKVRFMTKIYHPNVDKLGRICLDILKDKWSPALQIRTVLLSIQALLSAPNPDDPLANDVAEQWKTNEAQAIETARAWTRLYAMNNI
# P388 = experiment: cells; format: functional; conditions: Mus musculus
# P388/ADR = experiment: cells; format: functional; conditions: Mus musculus
# SN12K1 = experiment: cells; format: functional; conditions: Homo sapiens
# [2] = target: T2, Calpain-2 catalytic subunit (Sus scrofa, UniProt P43367); experiment: pig calpain II inhibitor potency, dose response, biochemical, fluorogenic peptide substrate (AID 1420); format: functional
# T2 sequence (P43367 whole entry): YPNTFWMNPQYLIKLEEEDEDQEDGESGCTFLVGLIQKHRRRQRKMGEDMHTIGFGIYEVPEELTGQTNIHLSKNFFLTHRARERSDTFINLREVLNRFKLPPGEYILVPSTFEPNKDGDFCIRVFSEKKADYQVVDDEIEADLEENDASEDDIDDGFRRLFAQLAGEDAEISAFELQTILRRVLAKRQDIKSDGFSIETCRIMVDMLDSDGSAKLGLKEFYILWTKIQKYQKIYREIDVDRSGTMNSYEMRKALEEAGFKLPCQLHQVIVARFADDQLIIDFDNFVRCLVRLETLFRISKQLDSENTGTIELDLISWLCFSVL
# [3] = target: T3, Heat shock factor protein 1 (Mus musculus, UniProt P38532); experiment: HSF1 potentiators in luciferase reporter cells, confirmation, cell-based, NIH3T3, luminescence, dose retest (AID 435004); format: functional;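 note: stress induced by proteasome inhibitor MG132 added 30 min after compound; luciferase reporter driven by HSF1 response element in NIH3T3 cells; actives raise luminescence as potentiators of the MG132 stress response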
# T3 sequence (P38532 whole entry): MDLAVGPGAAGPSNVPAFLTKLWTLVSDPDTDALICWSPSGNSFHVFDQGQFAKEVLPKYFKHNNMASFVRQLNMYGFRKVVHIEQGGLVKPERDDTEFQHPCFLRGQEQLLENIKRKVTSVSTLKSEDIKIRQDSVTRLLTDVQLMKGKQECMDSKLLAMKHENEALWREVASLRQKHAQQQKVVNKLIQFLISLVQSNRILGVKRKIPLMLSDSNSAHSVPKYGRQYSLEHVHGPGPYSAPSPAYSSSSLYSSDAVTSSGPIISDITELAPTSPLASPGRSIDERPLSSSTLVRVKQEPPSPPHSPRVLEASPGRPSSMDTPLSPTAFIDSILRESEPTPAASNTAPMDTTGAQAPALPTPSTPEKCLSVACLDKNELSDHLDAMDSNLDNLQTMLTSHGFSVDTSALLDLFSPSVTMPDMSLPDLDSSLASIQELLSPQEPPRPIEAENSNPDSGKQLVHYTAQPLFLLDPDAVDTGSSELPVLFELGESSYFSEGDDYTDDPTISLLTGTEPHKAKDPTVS
# [4] = target: Induced myeloid leukemia cell differentiation protein Mcl-1 (Homo sapiens, UniProt Q07820); format: functional
# cells [5] = format: functional, cell-based
# cells [6] = format: functional, cell-based; remark: listed apart in the source
# [7] = cytotoxicity in HEK-293T cells, dose response, cytotoxicity control for TCR NF-kB inhibitor project, luminescence, T-cell screen hits (AID 489026); format: functional, cell-based;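 note: cells exposed to compound about 14 hours before the viability readout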
# [8] = C. albicans growth with fluconazole, confirmation, fluorescence, retest (AID 2467); format: functional, cell-based
# [9] = NIH-3T3 fibroblast cytotoxicity, dose response, cytotoxicity control, cell-based, fluorescence, Alamar Blue, secondary assay (AID 2327); format: functional;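 note: NIH-3T3 mouse fibroblasts cultured with fluconazole at 8 µg/mL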
# [10] = inhibitors of firefly luciferase expression or activity, dose response, H4 neuroglioma cells, luminescence (AID 1990); format: functional, cell-based
# [11] = inhibitors of SNCA 5'UTR-driven reporter translation, confirmation, H4 neuroglioma cells, luminescence (AID 1988); format: functional, cell-based
# [12] = Luminescence Cell-Based Dose Response HTS to Identify Inhibitors of 5'UTR Stem-Loop Driven Prion Protein mRNA Translation in H4 Neuroglioblastoma Cells. [Related pubchem assays: 1827 (Project Summary), 1813 (Primary HTS)]; format: functional
# INS1 = experiment: beta cell apoptosis inhibitors, cytokine rescue, dose response, luminescence, retest (AID 449756); format: functional, cell-based; conditions: Rattus norvegicus;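 note: cell death triggered by IL-1 beta plus TNF-alpha plus IFN-gamma mixture; protective hits raise ATP signal compared with cytokine alone wells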
# [13] = target: T4, Polyadenylate-binding protein 1 (Homo sapiens, UniProt P11940); experiment: PABP1 MLLE–PAM2 binding inhibitor potency, dose response, biochemical, fluorescence polarization, FITC-PAM2 peptide (AID 602259); format: functional; conditions: read-out: IC50_Mean
# [14] = target: T4, Polyadenylate-binding protein 1; experiment: PABP1 MLLE–PAM2 interaction inhibitors, dose response, miRNA deadenylation inhibitor project, biochemical, fluorescence polarization, Cy5-PAM2 peptide, secondary (AID 602260); format: functional; conditions: read-out: IC50_Mean
# [15] = Luminescence Cell-Based Dose Retest to Confirm Inhibitors of Cancer Stem Cells. [Related pubchem assays (depositor defined):AID2717, AID2721]; format: functional; conditions: Homo sapiens
# [16] = test system: Streptococcus sp. 'group A'; experiment: growth inhibition of control SK(-) GAS strain, dose response, counter-screen for streptokinase expression inhibitor project, luminescence, kanamycin, BacTiterGlo, confirmation (AID 1900); format: functional, organism-based
# Streptococcus = experiment: Group A Streptococcus viability loss, dose response, counter-screen for streptokinase expression inhibitor project, luminescence, BacTiterGlo (AID 1915); format: functional, organism-based;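 note: potency for reduction of bacterial viability or growth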
# [17] = target: T5, Rac GTPase-activating protein 1 (Homo sapiens, UniProt Q9H0H5); experiment: MgcRacGAP GTPase-activating activity inhibitors, confirmation, biochemical, ADP Hunter fluorescence, primary and confirmatory (AID 624330); format: functional
# T5 sequence (Q9H0H5 whole entry): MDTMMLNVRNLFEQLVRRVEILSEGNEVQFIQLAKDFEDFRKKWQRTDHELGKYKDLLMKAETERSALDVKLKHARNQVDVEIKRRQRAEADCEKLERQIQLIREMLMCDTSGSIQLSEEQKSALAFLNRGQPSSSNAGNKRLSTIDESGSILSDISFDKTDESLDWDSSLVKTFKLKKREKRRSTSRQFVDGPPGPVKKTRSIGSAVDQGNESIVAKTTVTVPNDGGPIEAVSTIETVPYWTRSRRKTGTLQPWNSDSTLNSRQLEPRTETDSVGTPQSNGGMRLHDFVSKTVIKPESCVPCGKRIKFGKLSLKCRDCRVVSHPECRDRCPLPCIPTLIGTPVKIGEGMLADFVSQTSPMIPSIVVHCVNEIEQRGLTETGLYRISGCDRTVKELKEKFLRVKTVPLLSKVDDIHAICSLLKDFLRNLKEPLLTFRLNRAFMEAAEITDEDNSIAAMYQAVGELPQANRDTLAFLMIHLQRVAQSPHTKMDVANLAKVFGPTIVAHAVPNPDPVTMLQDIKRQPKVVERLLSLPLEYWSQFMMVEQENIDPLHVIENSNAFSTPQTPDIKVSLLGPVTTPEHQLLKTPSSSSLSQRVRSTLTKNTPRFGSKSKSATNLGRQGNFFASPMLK
# Cytochrome P450 2C19 = Cytochrome P450 2C19 (Homo sapiens, UniProt P33261); experiment: Cytochrome panel assay with activity outcomes. Panel member name: p450-cyp2c19 Compounds with AC50 equal or less than 10 uM are considered active; format: functional; conditions: read-out: AC50
# Cytochrome P450 2C19, sequence (P33261 whole entry): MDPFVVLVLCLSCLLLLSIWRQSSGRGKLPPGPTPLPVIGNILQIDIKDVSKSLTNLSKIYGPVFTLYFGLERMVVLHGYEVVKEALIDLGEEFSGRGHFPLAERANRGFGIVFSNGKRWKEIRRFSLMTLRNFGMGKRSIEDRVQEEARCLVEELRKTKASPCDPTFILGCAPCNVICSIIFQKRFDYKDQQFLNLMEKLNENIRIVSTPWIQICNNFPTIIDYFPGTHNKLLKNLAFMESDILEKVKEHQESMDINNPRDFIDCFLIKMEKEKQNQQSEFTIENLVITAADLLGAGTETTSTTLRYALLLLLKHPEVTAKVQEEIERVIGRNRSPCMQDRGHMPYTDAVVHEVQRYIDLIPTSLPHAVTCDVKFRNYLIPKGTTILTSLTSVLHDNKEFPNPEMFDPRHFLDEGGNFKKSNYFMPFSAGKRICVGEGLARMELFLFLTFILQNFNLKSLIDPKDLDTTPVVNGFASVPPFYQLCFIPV
# Induced myeloid leukemia cell differentiation protein Mcl-1, sequence (Q07820 whole entry): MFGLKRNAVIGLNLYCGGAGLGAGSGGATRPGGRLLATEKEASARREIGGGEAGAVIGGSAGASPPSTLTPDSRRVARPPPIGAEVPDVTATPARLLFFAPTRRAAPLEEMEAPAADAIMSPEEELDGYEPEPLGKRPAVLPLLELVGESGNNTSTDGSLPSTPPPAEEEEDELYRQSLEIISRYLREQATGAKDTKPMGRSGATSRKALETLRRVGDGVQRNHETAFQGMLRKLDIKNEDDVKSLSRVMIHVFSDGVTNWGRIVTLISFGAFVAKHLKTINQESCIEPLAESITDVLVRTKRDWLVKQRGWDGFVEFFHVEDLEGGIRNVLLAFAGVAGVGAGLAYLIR
# T4 sequence (P11940 whole entry): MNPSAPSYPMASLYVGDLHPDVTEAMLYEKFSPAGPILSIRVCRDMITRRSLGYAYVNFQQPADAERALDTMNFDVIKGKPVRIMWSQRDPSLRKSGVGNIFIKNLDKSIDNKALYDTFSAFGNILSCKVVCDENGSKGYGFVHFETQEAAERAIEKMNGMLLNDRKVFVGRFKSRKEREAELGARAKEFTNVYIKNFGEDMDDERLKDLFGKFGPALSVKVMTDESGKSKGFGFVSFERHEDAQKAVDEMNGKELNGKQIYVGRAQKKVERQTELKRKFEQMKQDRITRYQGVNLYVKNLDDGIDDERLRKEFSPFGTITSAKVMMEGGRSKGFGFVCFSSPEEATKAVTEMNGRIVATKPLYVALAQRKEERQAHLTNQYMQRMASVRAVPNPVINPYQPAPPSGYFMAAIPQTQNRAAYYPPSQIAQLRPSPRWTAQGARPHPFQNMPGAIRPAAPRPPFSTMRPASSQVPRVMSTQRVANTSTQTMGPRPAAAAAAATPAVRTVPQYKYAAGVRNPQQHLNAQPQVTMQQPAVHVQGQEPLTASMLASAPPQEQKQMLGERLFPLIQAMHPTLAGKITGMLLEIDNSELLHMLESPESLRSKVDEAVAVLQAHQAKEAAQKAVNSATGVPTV
structure (smiles),measurement,setting,value
NS(=O)(=O)c1ccc(CCNC(=O)c2cc(-c3ccco3)nc3ccccc23)cc1,IC50,[1],> 20 µM (inactive)
CC1=C2C3OC(=O)C(C)C3CCC2(C)C=C/C1=N\c1ccccc1 (stereo not drawn),GI50,P388,> 100 µM (inactive)
same,GI50,P388/ADR,> 100 µM (inactive)
same,GI50,SN12K1,> 100 µM (inactive)
COc1ccc2cc1Oc1ccc(cc1)C[C@H]1c3cc(c(OC)cc3CCN1C)Oc1c(OC)c(OC)cc3c1[C@H](C2)N(C)CC3 [FANCHININ],GI50,P388,1.77 µM (inactive)
same,GI50,P388/ADR,3.05 µM (inactive)
same,GI50,SN12K1,7.06 µM (inactive)
COc1ccc(-n2ncc(S(=O)(=O)c3ccccc3)c2-c2ccc(Cl)cc2)cc1,IC50,[2],3.23 µM (not active)
Cc1ccc(NC(=O)C[S+]([O-])CC(=O)NCCCc2ccccc2)cc1Cl (stereo not drawn),IC50,[1],> 20 µM (inactive)
O=C(c1ccccc1)c1ccc2nc(-c3ccco3)c(-c3ccco3)nc2c1,EC50,[3],32.3 µM (active)
same,IC50,[4],6.46 µM (active)
CCCCC(=O)N1CCN(c2nc3ccc(F)cc3s2)CC1,EC50,cells [5],> 350 µM (not active)
same,EC50,cells [6],4.69 µM (active)
O=C(c1ccccc1)c1cn(CC(=O)N2CCCc3ccccc32)c2ccccc12,IC50,[2],< 0.4 µM (not active)
Cc1ccc(C(=O)NC(=S)NCc2cccnc2)c(C)c1,IC50,[2],> 50 µM (not active)
Cc1ccc(OCc2nnc(SCC(=O)c3cccc([N+](=O)[O-])c3)n2C)cc1,IC50,[2],4.87 µM (not active)
COc1ccc(Nc2nc3cc(C)ccc3cc2C#N)c(OC)c1,IC50,[7],> 80 µM (inactive)
C/C(=N\NC(=O)c1cc(-c2cccnc2)nc2ccccc12)c1ccc(O)cc1O,EC50,[8],> 38 µM (not active)
same,EC50,[9],4.94 µM (active)
same,EC50,cells [5],10.9 µM (active)
same,EC50,[10],5.99 µM (active)
same,EC50,[11],8.88 µM (active)
same,EC50,[12],9.7 µM (active)
same,AC50,INS1,0.661 µM (active)
same,EC50,cells [6],> 350 µM (not active)
c1ccc(-c2nnc3sc(-c4cc5ccccc5o4)nn23)cc1,EC50,cells [5],> 350 µM (not active)
same,EC50,cells [6],> 350 µM (not active)
Cc1ccc(N2C(=O)N(CC(=O)Nc3cc(C)cc(C)c3)C(=O)C2C)cc1 (stereo not drawn),IC50,[2],> 50 µM (not active)
CCOc1ccc(NC(=O)CCCOc2cc(=O)n(C)c3ccccc23)cc1,IC50,[1],> 20 µM (inactive)
COc1cc(NS(=O)(=O)c2ccc(NC(=S)NC(=O)c3sc4cc(F)ccc4c3Cl)cc2)nc(OC)n1,IC50,[13],> 66 µM (inactive)
same,IC50,[4],4.37 µM (not active)
same,IC50,[14],> 66 µM (inactive)
CCCCSc1nc(C)cc(SCC(=O)N/N=C/c2cccc(OC)c2O)n1,AC50,[15],7.03 µM (active)
same,EC50,[16],2.31 µM (active)
same,EC50,[3],> 260 µM (inactive)
same,EC50,cells [5],15 µM (active)
same,EC50,[10],11.6 µM (active)
same,EC50,[11],10.2 µM (active)
same,EC50,[12],9.62 µM (active)
same,EC50,Streptococcus,2.61 µM (active)
same,EC50,cells [6],> 350 µM (not active)
Cc1cc(C(=O)NCCN(C)C)c2nc3ccccc3cc2c1,GI50,P388,0.0418 µM (active)
same,GI50,P388/ADR,0.341 µM (active)
same,GI50,SN12K1,0.519 µM (active)
COC(=O)c1ccc(Oc2cc(C)nc(SC)n2)cc1,IC50,[7],> 80 µM (inactive)
CN(C)c1ccc(NC(=O)c2cccc(N3C(=O)C4C5C=CC(C5)C4C3=O)c2)cc1 (stereo not drawn),IC50,[17],49.2 µM (active)
same,IC50,[4],1.89 µM (not active)
same,AC50,Cytochrome P450 2C19,25.1 µM (inconclusive)
CC(O)CCC(=O)c1ccoc1 (stereo not drawn),GI50,P388,4940 µM (inactive)
same,GI50,P388/ADR,3660 µM (inactive)
same,GI50,SN12K1,7230 µM (inactive)
CC(C)C[C@@H]1CN=C(N)N1C[C@@H]1CCCN1C[C@H](C)N1C[C@@H](Cc2ccccc2)N(CCCC2CCCC2)C1=N,IC50,[1],> 20 µM (inactive)
Cc1[nH]n(-c2ccc(C(=O)O)cc2)c(=O)c1CCO,IC50,[2],> 50 µM (not active)
C/C(=N\NC(=O)c1cccc(N/N=C(\C)c2cc(O)ccc2O)c1)c1cc(O)ccc1O,EC50,[8],> 38 µM (not active)
same,EC50,[9],10.8 µM (active)
same,EC50,[3],> 260 µM (inactive)
same,IC50,[17],67.8 µM (active)
same,IC50,[4],3.43 µM (active)
CCOC(=O)CSc1nc2ccccc2c(=O)n1NC(=O)c1ccccc1,IC50,[1],> 20 µM (inactive)
Cc1nc(=O)n2c(c1C(=O)Nc1ccc(Cl)cc1)NCC2,GI50,P388,> 31.6 µM (inactive)
CCCCCc1cc(=O)oc2c(C(CCN3CCCCC3)c3cc(OC)c(OC)c(OC)c3)c(OC)cc(OC)c12 (stereo not drawn),IC50,[1],> 20 µM (inactive)
same,AC50,[15],6.58 µM (active)
CC[C@@H](C)[C@@H]1CN([C@@H](CN2CCC[C@H]2CN2C(N)=NC[C@H]2CC(C)C)C(C)C)C(=N)N1CCCC1CCCC1,IC50,[1],> 20 µM (inactive)
O=[N+]([O-])c1cccc(-c2nc3ccccc3s/c2=N/O)c1,IC50,[2],22 µM (not active)
ClCc1ccc2ccc3ccc(CCl)nc3c2n1,GI50,P388,1.51 µM (inactive)
same,GI50,P388/ADR,0.883 µM (active)
same,GI50,SN12K1,1.87 µM (inactive)
C=C1C(=O)OC2CC1CCC1(C)OC1CCC(C)=CCCC2(C)O (stereo not drawn),GI50,P388,1.08 µM (active)
same,GI50,P388/ADR,0.463 µM (active)
same,GI50,SN12K1,4.35 µM (inactive)
CC(C)(C)C1CCC(C(=O)OCC(=O)N2CCN(C(=O)c3ccco3)CC2)CC1 (stereo not drawn),IC50,[2],29.8 µM (not active)
CC(=O)c1c(S)nc(-c2ccccc2)nc1N1CCCC1,IC50,[2],> 50 µM (not active)
O=C(N/N=C/c1ccccc1O)c1ccc2c(c1)OCO2,EC50,[16],4.24 µM (active)
same,EC50,cells [5],101 µM (active)
same,AC50,INS1,2.58 µM (active)
same,EC50,Streptococcus,4.46 µM (active)
same,EC50,cells [6],12.6 µM (active)
O=C1C=CC(=O)c2c(Cl)ccc(O)c21,GI50,P388,0.499 µM (active)
same,GI50,P388/ADR,0.344 µM (active)
same,GI50,SN12K1,25.6 µM (inactive)
CC1NC(=O)C(C)C(c2ccccc2)N(N=O)C1c1ccccc1 (stereo not drawn),GI50,P388,21 µM (inactive)
same,GI50,P388/ADR,0.933 µM (active)
same,GI50,SN12K1,> 100 µM (inactive)
